# Source: article PMC6364417, “Kinase inhibitor library screening identifies synergistic drug combinations effective in sensitive and resistant melanoma cells” (Journal of Experimental & Clinical Cancer Research : CR, 2019)
# Where two headings read alike, the source gives them in different places.
# What was measured:
# Experiment in all cases: Kinase inhibitor library screening, PrestoBlue cell viability, 1 or 10 μM, 72 h
# 501Mel cells (parental) = details: for Cell viability in kinase inhibitor library screening, 501Mel Parental, 1μΜ / Cell viability in kinase inhibitor library screening, 501Mel Parental, 10μΜ / cell viability (kinase inhibitor library screening): in %
# Protocol: (§1) After 72 h of treatment, cell viability was assessed using the PrestoBlue Cell Viability Reagent (ThermoFisher Scientific). Measurements were performed with the CLARIOstar Monochromator microplate reader (BMG Labtech).
# (§2) Kinase inhibitor library screening. […] Each cell line was treated in its sensitive form (parental), and also as 2 resistant derivatives, which were made resistant to either Vemurafenib (XP) or Dabrafenib (GP). Drugs were added at 2 different concentrations, 1 and 10 μM, for 72 h and cell viability was assessed using the PrestoBlue Cell Viability assay. Results are depicted as % viability compared to untreated cells. Each cell line was analyzed at least in duplicate. […] (XLSX 95 kb)
# [1] = test system: 501Mel-XP cells (Vemurafenib-resistant); details: for Cell viability in kinase inhibitor library screening, 501Mel XP, 10μΜ / cell viability (kinase inhibitor library screening): in %
# Protocol: as §1, §2
# A375 cells (parental) = test system: A375 cells (parental)
# Protocol: as §1, §2
# [2] = test system: A375-GP cells (Dabrafenib-resistant); details: for cell viability (kinase inhibitor library screening): in %
# Protocol: as §1, §2
# [3] = test system: A375-XP cells (Vemurafenib-resistant); details: for cell viability (kinase inhibitor library screening): in %
# Protocol: as §1, §2
# IGR37 cells (parental) = details: for Cell viability in kinase inhibitor library screening, IGR37 Parental, 1μΜ / Cell viability in kinase inhibitor library screening, IGR37 Parental, 10μΜ / cell viability (kinase inhibitor library screening): in %
# Protocol: as §1, §2
# [4] = test system: IGR37-GP cells (Dabrafenib-resistant); details: for Cell viability in kinase inhibitor library screening, IGR37 GP, 1μΜ / cell viability (kinase inhibitor library screening): in %
# Protocol: as §1, §2
# [5] = test system: IGR37-XP cells (Vemurafenib-resistant)
# Protocol: as §1, §2
# [6] = test system: 501Mel-GP cells (Dabrafenib-resistant); details: 501Mel GP
# Protocol: as §1, §2
compound,measurement,setting,value
C[S+]([O-])c1ccc(-c2nc(-c3ccncc3)c(-c3ccc(F)cc3)[nH]2)cc1 (centres unmarked) [SB 203580],"Cell viability in kinase inhibitor library screening, 501Mel Parental, 1μΜ",501Mel cells (parental),108.7
same,"Cell viability in kinase inhibitor library screening, 501Mel Parental, 10μΜ",501Mel cells (parental),95.5
same,"Cell viability in kinase inhibitor library screening, 501Mel XP, 10μΜ",[1],92.5
same,"Cell viability in kinase inhibitor library screening, A375 Parental, 1μΜ",A375 cells (parental),112.0
same,"Cell viability in kinase inhibitor library screening, A375 Parental, 10μΜ",A375 cells (parental),83.0
same,"Cell viability in kinase inhibitor library screening, A375 GP, 1μΜ",[2],93.4
same,"Cell viability in kinase inhibitor library screening, A375 GP, 10μΜ",[2],98.4
same,"Cell viability in kinase inhibitor library screening, A375 XP, 1μΜ",[3],111.6
same,"Cell viability in kinase inhibitor library screening, A375 XP, 10μΜ",[3],103.1
same,"Cell viability in kinase inhibitor library screening, IGR37 Parental, 1μΜ",IGR37 cells (parental),116.2
same,"Cell viability in kinase inhibitor library screening, IGR37 Parental, 10μΜ",IGR37 cells (parental),92.9
same,"Cell viability in kinase inhibitor library screening, IGR37 GP, 10μΜ",[4],86.6%
same,"Cell viability in kinase inhibitor library screening, IGR37 GP, 1μΜ",[4],105.2
same,"Cell viability in kinase inhibitor library screening, IGR37 XP, 10μΜ",[5],62.9%
same,"Cell viability in kinase inhibitor library screening, IGR37 XP, 1μΜ",[5]; in %,103.3
AZD4547,"cell viability, 501Mel Parental, 10μΜ","501Mel cells (parental); 501Mel Parental, 10μΜ, 72 h",11.5
same,"cell viability, 501Mel GP, 10μΜ","[6]; 10μΜ, 72 h",57.3
same,"cell viability, 501Mel XP, 1μΜ","[1]; 501Mel XP, 1μΜ, 72 h",93.2
same,"cell viability, 501Mel XP, 10μΜ","[1]; 501Mel XP, 10μΜ, 72 h",14.1
same,"cell viability, A375 Parental, 10μΜ","A375 cells (parental); A375 Parental, 10μΜ, 72 h",58.2
same,"cell viability, A375 XP, 1μΜ","[3]; A375 XP, 1μΜ, 72 h",100.3
same,"cell viability, A375 XP, 10μΜ","[3]; A375 XP, 10μΜ, 72 h",49.7
same,"cell viability, IGR37 Parental, 10μΜ","IGR37 cells (parental); IGR37 Parental, 10μΜ, 72 h",46.6
same,"cell viability, IGR37 GP, 1μΜ","[4]; IGR37 GP, 1μΜ, 72 h",93.7
same,"cell viability, IGR37 GP, 10μΜ","[4]; IGR37 GP, 10μΜ, 72 h",19.5
same,"cell viability, IGR37 XP, 1μΜ","[5]; IGR37 XP, 1μΜ, 72 h",94.4
same,"cell viability, IGR37 XP, 10μΜ","[5]; IGR37 XP, 10μΜ, 72 h",6.4
NC(=O)c1ccc(-c2nc(-c3ccc4c(c3)OCO4)c(-c3ccccn3)[nH]2)cc1 [SB 431542],cell viability (kinase inhibitor library screening),"501Mel cells (parental); 501Mel Parental, 1μΜ",98.3
same,cell viability (kinase inhibitor library screening),"[6]; 1μΜ, in %",102.6
same,cell viability (kinase inhibitor library screening),"[6]; 10μΜ, in %",85.7
same,cell viability (kinase inhibitor library screening),"[1]; 501Mel XP, 1μΜ",93.8
same,cell viability (kinase inhibitor library screening),"[1]; 501Mel XP, 10μΜ",79.9
same,cell viability (kinase inhibitor library screening),"A375 cells (parental); A375 Parental, 1μΜ, in %",106.2
same,cell viability (kinase inhibitor library screening),"[2]; A375 GP, 1μΜ",100.0
same,cell viability (kinase inhibitor library screening),"[2]; A375 GP, 10μΜ",98.5
same,cell viability (kinase inhibitor library screening),"[3]; A375 XP, 1μΜ",109.0
same,cell viability (kinase inhibitor library screening),"[3]; A375 XP, 10μΜ",106.6
same,cell viability (kinase inhibitor library screening),"IGR37 cells (parental); IGR37 Parental, 10μΜ",97.8
same,cell viability (kinase inhibitor library screening),"[4]; IGR37 GP, 1μΜ",100.4
same,cell viability (kinase inhibitor library screening),"[4]; IGR37 GP, 10μΜ",87.9
Cn1cnc(N)c2ncnc1-2 [3-Methyladenine],"Cell viability in kinase inhibitor library screening, 501Mel Parental, 1μΜ","501Mel cells (parental); 501Mel Parental, 1μΜ, 72 h",107.2
same,"Cell viability in kinase inhibitor library screening, 501Mel Parental, 10μΜ","501Mel cells (parental); 501Mel Parental, 10μΜ, 72 h",107.1
same,"Cell viability in kinase inhibitor library screening, 501Mel GP, 10μΜ","[6]; 10μΜ, 72 h, in %",93.3
same,"Cell viability in kinase inhibitor library screening, 501Mel XP, 10μΜ","[1]; 501Mel XP, 10μΜ, 72 h",87.7
same,"Cell viability in kinase inhibitor library screening, A375 Parental, 10μΜ","A375 cells (parental); A375 Parental, 10μΜ, 72 h",100.5
same,"Cell viability in kinase inhibitor library screening, A375 Parental, 1μΜ","A375 cells (parental); A375 Parental, 1μΜ, 72 h",112.2
same,"Cell viability in kinase inhibitor library screening, A375 GP, 1μΜ","[2]; A375 GP, 1μΜ, 72 h",104.5
same,"Cell viability in kinase inhibitor library screening, A375 XP, 1μΜ","[3]; A375 XP, 1μΜ, 72 h",106.2
same,"Cell viability in kinase inhibitor library screening, A375 XP, 10μΜ","[3]; A375 XP, 10μΜ, 72 h",109.5
same,"Cell viability in kinase inhibitor library screening, IGR37 Parental, 1μΜ","IGR37 cells (parental); IGR37 Parental, 1μΜ, 72 h",108.7
same,"Cell viability in kinase inhibitor library screening, IGR37 Parental, 10μΜ","IGR37 cells (parental); IGR37 Parental, 10μΜ, 72 h",106.4
same,"Cell viability in kinase inhibitor library screening, IGR37 GP, 10μΜ","[4]; IGR37 GP, 10μΜ, 72 h",97%
same,"Cell viability in kinase inhibitor library screening, IGR37 GP, 1μΜ","[4]; IGR37 GP, 1μΜ, 72 h",107.1
CCn1c(N)c(C(=O)NC)c(=O)c2ccc(C#C[C@@](C)(O)COC)nc21 [SAR131675],cell viability (kinase inhibitor library screening),"501Mel cells (parental); 501Mel Parental, 1μΜ",96.4
same,cell viability (kinase inhibitor library screening),"501Mel cells (parental); 501Mel Parental, 10μΜ",92.6
same,cell viability (kinase inhibitor library screening),"[6]; 1μΜ, in %",103.5
same,cell viability (kinase inhibitor library screening),"[6]; 10μΜ, in %",90.9
same,cell viability (kinase inhibitor library screening),"[1]; 501Mel XP, 1μΜ",103.7
same,cell viability (kinase inhibitor library screening),"[1]; 501Mel XP, 10μΜ",85.3
same,cell viability (kinase inhibitor library screening),"[2]; A375 GP, 1μΜ",103.2
same,cell viability (kinase inhibitor library screening),"[2]; A375 GP, 10μΜ",87.6
same,cell viability (kinase inhibitor library screening),"[3]; A375 XP, 1μΜ",108.8
same,cell viability (kinase inhibitor library screening),"IGR37 cells (parental); IGR37 Parental, 1μΜ",100.2
same,cell viability (kinase inhibitor library screening),"IGR37 cells (parental); IGR37 Parental, 10μΜ",99.7
same,cell viability (kinase inhibitor library screening),"[4]; IGR37 GP, 1μΜ",93.4
same,cell viability (kinase inhibitor library screening),"[4]; IGR37 GP, 10μΜ",96.6
same,cell viability (kinase inhibitor library screening),"[5]; IGR37 XP, 1μΜ, in %",94.6
same,cell viability (kinase inhibitor library screening),"[5]; IGR37 XP, 10μΜ, in %",71.4
